The test system of experiment [1] is r(CUG)9 (RNA, repeat) CUGCUGCUGCUGCUGCUGCUGCUGCUG
As to the kind of experiment: SPR single cycle kinetics. The conditions noted are these: 25 °C.

The test system of experiment [2] is r(CCG)9 (RNA, repeat) CCGCCGCCGCCGCCGCCGCCGCCGCCG
The experiment in a line: SPR single cycle kinetics. The conditions noted are these: HBS-EP+ buffer, 25 °C.

Molecules are shown by their SMILES.

For the molecule `NCCCNc1nc(NC(=O)OCCCNC(=O)CCNCCC(=O)NCCCOC(=O)Nc2cc3c(-c4ccnc(N5CCNCC5)c4)cccc3c(NCCCN)n2)cc2c(-c3ccnc(N4CCNCC4)c3)cccc12`, the binding entry is reported as “yes” in experiment [1] (HBS-EP+ buffer, 6.3-100 nM, significant response from 6.3 nM, not fitted) and “weak” in experiment [2] (highest concentration tested 0.1 μM).
In the case of `NCCCNc1nc(NC(=O)OCCCN)cc2c(-c3ccnc(N4CCNCC4)c3)cccc12`, the “K d(app)” value in experiment [1] (Na+ not printed for the running buffer (HBS-EP+; 500 mM NaCl only for immobilization), apparent, assumed 1:1 binding isotherm, 0.063-1.0 μM) was 1.2 µM. The binding entry in experiment [2] (highest concentration tested 1.0 μM) is “weak”.

The values above are taken from article PMC7702137 (2020).
